# Measured values reported in PubChem BioAssay AID180 (DTP/NCI, 2004).
# Where “and” joins values, the source holds several entries; their conditions need not be identical. Equal entries are not always repeated.
# System: BDF1 mice, Adenocarcinoma 755 s.c., tumor weight T/C
# Test: NCI In Vivo Anticancer Drug Screen. Data for tumor model Adenocarcinoma 755 (subcutaneous) in B6D2F1 (BDF1) mice
# Conditions: endpoint: mean tumor weight, higher = larger tumour
# How it was run: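 In vivo antitumor screen on a transplantable tumor line. Result equals the measure in compound-treated animals divided by the same measure in vehicle controls.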
# [1] = dose: 25.0 mg/kg/injection, schedule: Q01DX011 (ip), vehicle: methylcellulose (MC)
# [2] = dose: 30.0 mg/kg/injection, schedule: Q01DX011 (ip), vehicle: carboxymethylcellulose (CMC)
# [3] = dose: 60.0 mg/kg/injection, schedule: Q01DX011 (ip), vehicle: carboxymethylcellulose (CMC)
# [4] = dose: 120.0 mg/kg/injection, schedule: Q01DX011 (ip), vehicle: carboxymethylcellulose (CMC)
# [5] = dose: 240.0 mg/kg/injection, schedule: Q01DX011 (ip), vehicle: carboxymethylcellulose (CMC)
# [6] = dose: 15.0 mg/kg/injection, schedule: Q01DX011 (ip), vehicle: saline
# [7] = dose: 125.0 mg/kg/injection, schedule: Q01DX011 (ip), vehicle: saline
# [8] = dose: 250.0 mg/kg/injection, schedule: Q01DX011 (ip), vehicle: saline
# [9] = dose: 3.1 mg/kg/injection, schedule: Q01DX011 (ip), vehicle: methylcellulose (MC)
# [10] = dose: 37.5 mg/kg/injection, schedule: Q01DX011 (ip), vehicle: carboxymethylcellulose (CMC)
compound,measurement,setting,value
CCN(CC)C(=O)CSc1ncnc2nc[nH]c12,T/C,"dose: 6.0 mg/kg/injection, schedule: Q01DX011 (ip), vehicle: methylcellulose (MC)",91 % of control
same,T/C,[1],43 % of control
same,T/C,"dose: 31.25 mg/kg/injection, schedule: Q01DX011 (ip), vehicle: methylcellulose (MC)",6 % of control
same,T/C,"dose: 62.5 mg/kg/injection, schedule: Q01DX011 (ip), vehicle: methylcellulose (MC)",4 % of control
O=S1(=O)CCCO1,T/C,"dose: 80.0 mg/kg/injection, schedule: Q01DX011 (ip), vehicle: carboxymethylcellulose (CMC)",32 % of control and 33 % of control
Clc1ccc(N2CCN(CCCN3CCN(c4cccc(Cl)c4)CC3)CC2)cc1,T/C,"dose: 5.0 mg/kg/injection, schedule: Q01DX011 (ip), vehicle: methylcellulose (MC)",71 % of control
same,T/C,"dose: 8.0 mg/kg/injection, schedule: Q01DX011 (ip), vehicle: carboxymethylcellulose (CMC)",83 % of control
same,T/C,"dose: 10.0 mg/kg/injection, schedule: Q01DX011 (ip), vehicle: methylcellulose (MC)",62 % of control and 72 % of control
same,T/C,"dose: 12.0 mg/kg/injection, schedule: Q01DX011 (ip), vehicle: carboxymethylcellulose (CMC)",103 % of control
same,T/C,"dose: 18.0 mg/kg/injection, schedule: Q01DX011 (ip), vehicle: carboxymethylcellulose (CMC)",40 % of control
same,T/C,"dose: 20.0 mg/kg/injection, schedule: Q01DX011 (ip), vehicle: methylcellulose (MC)",65 % of control
same,T/C,"dose: 27.0 mg/kg/injection, schedule: Q01DX011 (ip), vehicle: carboxymethylcellulose (CMC)",46 % of control
same,T/C,[2],47 % of control
same,T/C,"dose: 40.0 mg/kg/injection, schedule: Q01DX011 (ip), vehicle: methylcellulose (MC)",25 % of control
same,T/C,[3],26 % of control
Cn1c(=O)c2c(nc(N/N=C/c3ccccc3C(=O)O)n2C)n(C)c1=O,T/C,[2],76 % of control
same,T/C,[3],69 % of control
same,T/C,[4],74 % of control
same,T/C,[5],62 % of control
CCN(CC)C(=O)CSc1nc(N)nc2nc[nH]c12,T/C,[1],45 % of control
same,T/C,"dose: 50.0 mg/kg/injection, schedule: Q01DX011 (ip), vehicle: methylcellulose (MC)",12 % of control
same,T/C,"dose: 100.0 mg/kg/injection, schedule: Q01DX011 (ip), vehicle: methylcellulose (MC)",10 % of control
same,T/C,"dose: 200.0 mg/kg/injection, schedule: Q01DX011 (ip), vehicle: methylcellulose (MC)",3 % of control and 13 % of control
same,T/C,"dose: 400.0 mg/kg/injection, schedule: Q01DX011 (ip), vehicle: methylcellulose (MC)",4 % of control
NC(=O)c1cc(N)nc(Cl)n1,T/C,[6],102 % of control
same,T/C,"dose: 31.0 mg/kg/injection, schedule: Q01DX011 (ip), vehicle: saline",90 % of control
same,T/C,"dose: 62.0 mg/kg/injection, schedule: Q01DX011 (ip), vehicle: saline",87 % of control
same,T/C,[7],83 % of control
same,T/C,[8],61 % of control
CCCNc1ncnc2c1cnn2C1CCCO1 (stereo not drawn),T/C,"dose: 1.5 mg/kg/injection, schedule: Q01DX011 (ip), vehicle: methylcellulose (MC)",75 % of control
same,T/C,[9],66 % of control
same,T/C,"dose: 6.2 mg/kg/injection, schedule: Q01DX011 (ip), vehicle: methylcellulose (MC)",27 % of control
same,T/C,"dose: 12.5 mg/kg/injection, schedule: Q01DX011 (ip), vehicle: methylcellulose (MC)",3 % of control and 4 % of control
Nc1nc(Cl)nc2c1ncn2C1OC(CO)C(O)C1O (stereo not drawn),T/C,"dose: 0.05 mg/kg/injection, schedule: Q01DX011 (ip), vehicle: methylcellulose (MC)",59 % of control
same,T/C,"dose: 0.1 mg/kg/injection, schedule: Q01DX011 (ip), vehicle: methylcellulose (MC)",84 % of control
same,T/C,"dose: 0.2 mg/kg/injection, schedule: Q01DX011 (ip), vehicle: methylcellulose (MC)",48 % of control
CCCn1cnc2c(SC(C)C)nc(N)nc21,T/C,[9],16 % of control
same,T/C,"dose: 6.25 mg/kg/injection, schedule: Q01DX011 (ip), vehicle: methylcellulose (MC)",2 % of control
COc1ccc(/C=N/Nc2nc3c([nH]2)c(=O)n(C)c(=O)n3C)cc1,T/C,[2],108 % of control
same,T/C,[3],94 % of control
same,T/C,"dose: 480.0 mg/kg/injection, schedule: Q01DX011 (ip), vehicle: carboxymethylcellulose (CMC)",64 % of control
Clc1ncnc2c1ncn2C1CCCS1 (stereo not drawn),T/C,[1],107 % of control
C[C@]12CCCC[C@@H]1CC[C@@H]1[C@@H]2[C@@](C)(O)C[C@@]2(C)[C@H]1CC[C@]2(C)O,T/C,"dose: 300.0 mg/kg/injection, schedule: Q01DX011 (sc), vehicle: steriod suspending solution",79 % of control
NNc1ncnc2nc[nH]c12,T/C,"dose: 25.0 mg/kg/injection, schedule: Q01DX011 (ip), vehicle: carboxymethylcellulose (CMC)",68 % of control
same,T/C,[10],57 % of control
C[C@]12CCCC[C@@H]1CC[C@@H]1[C@@H]2[C@@H](O)C[C@]2(C)[C@@H](N)CC[C@@H]12,T/C,"dose: 22.0 mg/kg/injection, schedule: Q01DX011 (sc), vehicle: steriod suspending solution",106 % of control
same,T/C,"dose: 44.0 mg/kg/injection, schedule: Q01DX011 (sc), vehicle: steriod suspending solution",74 % of control
O=C1Nc2cc3c(c4cccc1c24)CCCC3,T/C,"dose: 1.25 mg/kg/injection, schedule: Q01DX011 (ip), vehicle: carboxymethylcellulose (CMC)",111 % of control
same,T/C,"dose: 5.0 mg/kg/injection, schedule: Q01DX011 (ip), vehicle: carboxymethylcellulose (CMC)",95 % of control
CN1CC[C@]23c4c5ccc(O)c4O[C@H]2C(=O)CC[C@@]3(O)[C@H]1C5,T/C,"dose: 4.5 mg/kg/injection, schedule: Q01DX011 (ip), vehicle: methylcellulose (MC)",61 % of control and 73 % of control and 74 % of control
C[C@]12CC[C@@H]3c4ccc(OC(=O)c5ccccc5)cc4CC[C@H]3[C@@H]1CC[C@@H]2O,T/C,"dose: 77.31 mg/kg/injection, schedule: Q01DX011 (sc), vehicle: steriod suspending solution",81 % of control
same,T/C,"dose: 125.0 mg/kg/injection, schedule: Q01DX011 (sc), vehicle: steriod suspending solution",66 % of control
same,T/C,"dose: 154.63 mg/kg/injection, schedule: Q01DX011 (sc), vehicle: steriod suspending solution",94 % of control
same,T/C,"dose: 250.0 mg/kg/injection, schedule: Q01DX011 (sc), vehicle: steriod suspending solution",87 % of control
same,T/C,"dose: 309.25 mg/kg/injection, schedule: Q01DX011 (sc), vehicle: steriod suspending solution",72 % of control
same,T/C,"dose: 500.0 mg/kg/injection, schedule: Q01DX011 (sc), vehicle: steriod suspending solution",84 % of control
same,T/C,"dose: 618.5 mg/kg/injection, schedule: Q01DX011 (sc), vehicle: steriod suspending solution",91 % of control
same,T/C,"dose: 1000.0 mg/kg/injection, schedule: Q01DX011 (sc), vehicle: steriod suspending solution",54 % of control
COc1cc(C(=O)O)nc(N)n1,T/C,[6],111 % of control
same,T/C,[7],100 % of control
same,T/C,[8],161 % of control
Cn1c(=O)c2[nH]c(N/N=C/c3ccccc3C(=O)O)nc2n(C)c1=O,T/C,[2],103 % of control
same,T/C,[3],92 % of control
same,T/C,[4],88 % of control
same,T/C,[5],95 % of control
CCCCSc1nc(N)nc2c1ncn2CC(C)CC (stereo not drawn),T/C,[10],30 % of control and 47 % of control
same,T/C,"dose: 150.0 mg/kg/injection, schedule: Q01DX011 (ip), vehicle: carboxymethylcellulose (CMC)",2 % of control and 18 % of control
same,T/C,"dose: 300.0 mg/kg/injection, schedule: Q01DX011 (ip), vehicle: carboxymethylcellulose (CMC)",2 % of control
CSc1ncnc2c1ncn2CCCl,T/C,"dose: 1.5 mg/kg/injection, schedule: Q01DX011 (ip), vehicle: carboxymethylcellulose (CMC)",92 % of control
same,T/C,"dose: 3.0 mg/kg/injection, schedule: Q01DX011 (ip), vehicle: carboxymethylcellulose (CMC)",80 % of control
same,T/C,"dose: 6.0 mg/kg/injection, schedule: Q01DX011 (ip), vehicle: carboxymethylcellulose (CMC)",31 % of control
same,T/C,"dose: 6.2 mg/kg/injection, schedule: Q01DX011 (ip), vehicle: carboxymethylcellulose (CMC)",34 % of control
same,T/C,"dose: 12.5 mg/kg/injection, schedule: Q01DX011 (ip), vehicle: carboxymethylcellulose (CMC)",4 % of control
